In article PMC11767077, “Experimental Validation of Antiobesogenic and Osteoprotective Efficacy of Ginsenoside CK via Targeting Lipid and Atherosclerosis Pathways” (Life, 2024):
Converted amounts (≈) assume the structure as drawn.

Biological target: α-glucosidase
Assay: p-NPG colorimetric enzyme assay, […] nm, commercial α-glucosidase
Format: biochemical

Question: With `CC(C)=CCC[C@](C)(O[C@@H]1O[C@H](CO)[C@@H](O)[C@H](O)[C@H]1O)[C@H]1CC[C@]2(C)[C@@H]1[C@H](O)C[C@@H]1[C@@]3(C)CC[C@H](O)C(C)(C)[C@@H]3CC[C@]12C` [CK, ginsenoside CK] as the compound, how does the IC50 read?
Answer: Its IC50 is 22.83 µg/mL (≈ 36.7 µM).
